# Where two headings read alike, the source gives them in different places.
# Experiments:
# HLA-A0201 = HLA-A0201 (Homo sapiens, UniProt P04439, D140Y/D185E/D98H/E176V/E277Q/G131W/G231S/I119V/I121R/I166T/I218V/L300P/L318F/N151K/N90K/P208A/P217A/Q86G/Q94H/R138H/R169H/T345S); test: HLA class I stabilization assay, binding affinity to HLA-A0201
# [1] = tested on: lymphocytes from PBF-positive patients with osteosarcoma; test: Frequency analysis of antigenic peptide-specific CTLs (LD/MLPC, HLA-A0201/PBF tetramer staining); type: cell-based, human
# Protocol: Lymphocytes from five PBF-positive patients with osteosarcoma were subjected to ,mixed lymphocyte peptide culture under conditions of limiting dilution (limiting dilution/mixed lymphocyte peptide culture; LD/MLPC) to induce peptide-specific CTLs (Cancer Sci., 2008, 99:368-375, which is incorporated herein by reference). Regarding two patients: Patient Nos. 1 ,and 2, 50 ml of peripheral blood was collected to isolate peripheral blood mononuclear cells (PBMCs). PBMCs were cultured for 60 minutes at room temperature in AIM-V medium (Invitrogen) containing 1% human serum and supplemented with 50 μg/ml of the peptide shown in SEQ ID NO:4. PBMCs which were pulsed with the peptide were plated at 2×10^5 cells/200 μl/well on a U-bottomed 96-well microtiter plate and cultured in AIM-V medium containing 10% human serum, 20 U/ml IL-2, and 10 ng/ml IL-7. Seven days after the culture was started, half of the cultured medium in each well was replaced with AIM-V medium containing IL-2, IL-7, and the peptide shown in SEQ ID NO:4 in order to perform the second stimulation. Cells on 14 to 21 days after the culture was started were used for frequency analysis with a tetramer.
# Regarding three patients: Patient Nos. 3, 4, and 5, CD8-positive cells were isolated from PBMCs using magnetic anti-CD8 microbeads (Miltenyi Biotec). CD8-positive cells were pulsed for 60 minutes with the peptide shown in SEQ ID NO:4 and inactivated by radiation. 1.0×10^5 to 2.1×10^5 CD8-positive cells/well were cultured on a 48-well microtiter plate using AIM-V medium containing 10% human serum, 20 U/ml IL-2, and 10 ng/ml IL-7, together with 2×10^5 to 5×10^5 cells/well of irradiated, peptide-pulsed CD8-positive cells. After 7 days of the culture, the irradiated peptide-pulsed CD8-positive cells were added as described above, in order to perform the second stimulation. Cells on 13 to 23 days after the culture was started were used for frequency analysis with a tetramer. A PE-labeled HLA-A0201/PBF tetramer (MBL) which was prepared using the peptide shown in SEQ ID NO:4 was used for the analysis.
# An FITC-labeled HLA-A0201/HIV tetramer (MBL) which was prepared using an HIV-derived peptide was used as negative control. Some of the lymphocytes which were cultured using the LD/MLPC method were cultured at room temperature for 15 minutes with the PE-labeled HLA-A0201/PBF tetramer or with the FITC-labeled HLA-A0201/HIV tetramer (10 nM each, in 25 μl of PBS), followed by staining. Further, a PE-Cy5-labeled anti-CD8 antibody ,eBioscience) was added and incubated for 15 minutes, followed by staining. Then, cells were washed twice with PBS, fixed in 0.5% formalin, and analyzed in a flow cytometer FACScan. Living cells which were stained both with the PE-Cy5-labeled anti-CD8 antibody and with the PE-labeled HLA-A0201/PBF tetramer were considered to be tetramer-positive and peptide-specific CTLs. The frequency of CTLs specific for a peptide shown in SEQ ID ,NO:4 was determined using the following equation: Frequency=the number of tetramer-positive wells/(the total number of the wells examined×the number of CD8-positive cells per well at the start of LD/MLPC). Of the five patients, three patients: Patient Nos. […], had frequencies of 5×10^−6, 2×10^−7, and 5×10^−7, respectively.
Substance,% MFI increase±standard deviation (SD) (HLA-A0201),"% MFI increase±standard deviation (SD) (HLA-A0201; triplicate, FITC-labeled anti-HLA-A2 antibody BB7.2, flow cytometry)",Frequency of CTLs specific for the peptide ([1]; Patient No. 1),"Number of tetramer-positive wells ([1]; Patient No. 1, PBMCs, 18 wells tested, 200,000 initial cells per well, 25% CD8)",Frequency of CTLs specific for the peptide ([1]; Patient No. 2),"Number of tetramer-positive wells ([1]; Patient No. 2, PBMCs, 46 wells tested, 200,000 initial cells per well, 24% CD8)",Frequency of CTLs specific for the peptide ([1]; Patient No. 3),"Number of tetramer-positive wells ([1]; Patient No. 3, CD8-positive cells, 56 wells tested, 210,000 initial cells per well, 99% CD8)",Frequency of CTLs specific for the peptide ([1]; Patient No. 4),"Number of tetramer-positive wells ([1]; Patient No. 4, CD8-positive cells, 36 wells tested, 150,000 initial cells per well, 99% CD8)",Frequency of CTLs specific for the peptide ([1]; Patient No. 5),"Number of tetramer-positive wells ([1]; Patient No. 5, CD8-positive cells, 103 wells tested, 100,000 initial cells per well, 99% CD8)"
"RGYVYQGL [SEQ ID NO:6, reference compound]",5.6±8.2%,–,–,–,–,–,–,–,–,–,–,–
SEQ ID NO:4: fragment peptide of tumor antigen protein PBF (papillomavirus binding factor) binding to HLA-A2 antigen; synthesized by the Fmoc method (ALPSFQIPV),–,74.5±6.6%,<1 × 10^−6,0,5×10^−6,10,2×10^−7,2,5×10^−7,3,<1 × 10^−7,0
